Active and inactive are the calls of the source.
Assays:
Large T antigen = Large T antigen (Simian virus 40, UniProt P03070); format: functional, Betapolyomavirus macacae;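 further: Confirmatory-stage PubChem screen for compounds that inhibit SV40 T antigen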
[1] = molecular target: T1, Voltage-gated N-type calcium channel alpha-1B subunit/Amyloid beta A4 precursor protein-binding family A member 1 (Homo sapiens, UniProt Q00975+Q02410); format: protein assay
[2] = molecular target: T2, RNA-binding protein pos-1 (Caenorhabditis elegans, UniProt G5EF15); assay: disruptors of C. elegans POS-1 RNA interaction – biochemical, fluorescence polarization, dose response (AID 1964);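 further: purified POS-1 fused to maltose binding protein made in E. coli; potency of compounds blocking POS-1 binding to fluorescent RNA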
T2 sequence (G5EF15 whole entry): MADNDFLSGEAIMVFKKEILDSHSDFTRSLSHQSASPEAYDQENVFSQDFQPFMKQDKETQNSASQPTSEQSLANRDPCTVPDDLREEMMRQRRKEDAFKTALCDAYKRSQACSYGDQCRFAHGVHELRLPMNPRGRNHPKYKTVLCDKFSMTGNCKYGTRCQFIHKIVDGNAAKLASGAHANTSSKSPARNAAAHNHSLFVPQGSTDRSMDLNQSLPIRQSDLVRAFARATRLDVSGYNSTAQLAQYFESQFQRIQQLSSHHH

[3] = molecular target: T1, Voltage-gated N-type calcium channel alpha-1B subunit/Amyloid beta A4 precursor protein-binding family A member 1; format: protein assay; remark: listed apart in the source
[4] = molecular target: T3, Zinc finger protein mex-5 (Caenorhabditis elegans, UniProt Q9XUB2); assay: potency of MEX-5 RNA-binding blockers – biochemical, C. elegans, fluorescence polarization, dose response (AID 1960)
T3 sequence (Q9XUB2 whole entry): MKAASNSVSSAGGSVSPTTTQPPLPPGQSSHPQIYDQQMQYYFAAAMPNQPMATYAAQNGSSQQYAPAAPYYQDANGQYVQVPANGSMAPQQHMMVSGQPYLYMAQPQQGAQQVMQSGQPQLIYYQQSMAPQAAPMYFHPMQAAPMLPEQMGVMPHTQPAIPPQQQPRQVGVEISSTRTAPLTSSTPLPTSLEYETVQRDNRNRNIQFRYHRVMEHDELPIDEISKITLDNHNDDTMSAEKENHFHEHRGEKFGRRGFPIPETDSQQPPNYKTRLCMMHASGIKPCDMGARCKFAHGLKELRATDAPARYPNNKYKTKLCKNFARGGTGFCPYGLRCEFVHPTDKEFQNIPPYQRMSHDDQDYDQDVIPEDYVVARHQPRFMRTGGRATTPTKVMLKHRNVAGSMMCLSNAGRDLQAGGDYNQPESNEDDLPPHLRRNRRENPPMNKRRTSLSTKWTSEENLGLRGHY

Nonstructural protein 1 = Nonstructural protein 1 (Influenza A virus, UniProt Q194T2); format: functional, Influenza A virus (A/California/07/2009(H1N1))
Chain of Nonstructural protein 1 (Q194T2 whole entry): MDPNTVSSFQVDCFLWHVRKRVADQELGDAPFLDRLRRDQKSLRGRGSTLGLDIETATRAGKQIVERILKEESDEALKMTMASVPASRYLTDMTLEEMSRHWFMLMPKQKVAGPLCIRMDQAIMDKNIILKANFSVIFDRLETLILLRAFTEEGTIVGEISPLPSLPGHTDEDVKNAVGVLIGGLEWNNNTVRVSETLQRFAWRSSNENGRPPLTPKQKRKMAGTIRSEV

[5] = molecular target: DNA dC->dU-editing enzyme APOBEC-3G (Homo sapiens, UniProt Q9HC16); assay: Dose Response confirmation of small molecule APOBEC3G DNA Deaminase Inhibitors via a fluorescence-based single-stranded DNA deaminase assay. [Related pubchem assays (depositor defined):AID493012, AID493028]; format: functional
[6] = molecular target: T4, Corticotropin-releasing factor receptor 2/Corticotropin-releasing factor-binding protein (Homo sapiens, UniProt P24387+Q13324); assay: activators of CRF receptor 2 with binding protein – uHTS hits, confirmation (AID 602473); format: functional; details: read-out: EC50_Mean
T4 sequence (Q13324 whole entry): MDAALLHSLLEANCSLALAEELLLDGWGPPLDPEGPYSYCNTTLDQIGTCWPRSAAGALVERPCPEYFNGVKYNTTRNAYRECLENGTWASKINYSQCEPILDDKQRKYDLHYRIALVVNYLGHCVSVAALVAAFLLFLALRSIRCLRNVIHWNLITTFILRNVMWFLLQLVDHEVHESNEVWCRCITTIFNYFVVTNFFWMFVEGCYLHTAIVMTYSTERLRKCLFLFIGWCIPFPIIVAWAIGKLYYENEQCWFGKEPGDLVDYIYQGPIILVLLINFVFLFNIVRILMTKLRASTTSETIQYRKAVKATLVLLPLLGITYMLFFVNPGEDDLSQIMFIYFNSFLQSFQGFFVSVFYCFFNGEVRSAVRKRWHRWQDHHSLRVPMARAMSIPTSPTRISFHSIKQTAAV
T4 sequence (P24387 whole entry): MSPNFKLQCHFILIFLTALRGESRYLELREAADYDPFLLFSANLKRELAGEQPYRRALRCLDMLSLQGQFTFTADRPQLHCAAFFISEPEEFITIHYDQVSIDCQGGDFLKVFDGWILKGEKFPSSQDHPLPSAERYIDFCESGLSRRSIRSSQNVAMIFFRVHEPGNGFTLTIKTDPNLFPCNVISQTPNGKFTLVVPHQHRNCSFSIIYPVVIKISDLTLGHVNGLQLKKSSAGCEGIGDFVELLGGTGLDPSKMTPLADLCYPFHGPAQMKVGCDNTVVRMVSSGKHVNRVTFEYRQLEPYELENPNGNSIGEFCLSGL

[7] = molecular target: T4, Corticotropin-releasing factor receptor 2/Corticotropin-releasing factor-binding protein; assay: Dose Response confirmation of uHTS hits for small molecule antagonists of the CRF-binding protein and CRF-R2 receptor complex.; format: functional; details: read-out: IC50_Mean
[8] = molecular target: Peroxisome proliferator-activated receptor gamma/Nuclear receptor corepressor 2 (Homo sapiens, UniProt P37231+Q9Y618); assay: Counterscreen for NR2E3 inverse agonists: TR-FRET-based biochemical high throughput dose response assay to identify inverse agonists of the interaction between peroxisome proliferator-activated receptor gamma (PPARg) and nuclear receptor co-repressor 2 (NCOR2).; format: functional
[9] = molecular target: Photoreceptor-specific nuclear receptor (Homo sapiens, UniProt Q9Y5X4); assay: ligands suppressing NR2E3 nuclear receptor activity – biochemical, TR-FRET, dose response (AID 463256); format: functional
Prothrombin = Prothrombin (Homo sapiens, UniProt P00734); assay: Thrombin 1536 HTS Dose Response Confirmation. [Related pubchem assays: 1046 (Thrombin 1536 HTS; hits were confirmed in this assay)]; format: functional
Vero = assay: viability of Vero cells under compound – cytotoxicity control for flavivirus capping enzyme inhibitors (AID 588742); format: functional; details: Chlorocebus sabaeus
[10] = molecular target: T5, Polyadenylate-binding protein 1 (Homo sapiens, UniProt P11940); assay: MLLE binding blockers, Cy5 peptide tracer – biochemical, fluorescence polarization, Cy5-PAM2 peptide, secondary, miRNA deadenylation inhibitor project, dose response (AID 602260); format: functional; details: read-out: IC50_Mean
T5 sequence (P11940 whole entry): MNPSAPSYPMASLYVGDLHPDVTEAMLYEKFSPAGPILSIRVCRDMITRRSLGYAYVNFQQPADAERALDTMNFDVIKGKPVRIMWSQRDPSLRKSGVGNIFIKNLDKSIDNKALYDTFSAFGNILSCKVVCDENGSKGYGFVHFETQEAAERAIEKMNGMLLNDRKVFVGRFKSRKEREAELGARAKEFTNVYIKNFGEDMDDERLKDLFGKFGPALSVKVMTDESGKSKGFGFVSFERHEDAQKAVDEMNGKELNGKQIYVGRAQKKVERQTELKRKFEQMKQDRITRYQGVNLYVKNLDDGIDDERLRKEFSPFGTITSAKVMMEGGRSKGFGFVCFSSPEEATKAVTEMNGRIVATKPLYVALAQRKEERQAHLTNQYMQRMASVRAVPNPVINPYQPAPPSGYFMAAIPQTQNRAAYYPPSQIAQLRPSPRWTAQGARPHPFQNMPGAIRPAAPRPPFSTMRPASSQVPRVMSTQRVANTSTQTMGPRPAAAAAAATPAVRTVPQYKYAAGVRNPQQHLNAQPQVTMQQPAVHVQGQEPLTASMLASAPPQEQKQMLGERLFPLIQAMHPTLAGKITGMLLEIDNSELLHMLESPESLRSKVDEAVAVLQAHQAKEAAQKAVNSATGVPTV

Genome polyprotein = Genome polyprotein (dengue virus type 2, UniProt P29990); assay: flavivirus cap methylation enzyme inhibition – biochemical, confirmation dose response, primary screen (AID 588689); format: functional
[11] = molecular target: T5, Polyadenylate-binding protein 1; assay: MLLE domain peptide-binding blockers, IC50 – biochemical, fluorescence polarization, FITC-PAM2 peptide, dose response (AID 602259); format: functional; details: read-out: IC50_Mean
Beta-galactosidase = Beta-galactosidase (Escherichia coli, UniProt Q8VNN2); assay: Dose response counterscreen for EBI2 assay utilizing the enzyme, b-galactosidase.; format: functional
P388/ADR = assay: cells; format: functional; details: Mus musculus
SN12K1 = assay: cells; format: functional; details: Homo sapiens
P388 = assay: cells; format: functional; details: Mus musculus

T1 sequence (Q00975 whole entry, the tested form may be a part): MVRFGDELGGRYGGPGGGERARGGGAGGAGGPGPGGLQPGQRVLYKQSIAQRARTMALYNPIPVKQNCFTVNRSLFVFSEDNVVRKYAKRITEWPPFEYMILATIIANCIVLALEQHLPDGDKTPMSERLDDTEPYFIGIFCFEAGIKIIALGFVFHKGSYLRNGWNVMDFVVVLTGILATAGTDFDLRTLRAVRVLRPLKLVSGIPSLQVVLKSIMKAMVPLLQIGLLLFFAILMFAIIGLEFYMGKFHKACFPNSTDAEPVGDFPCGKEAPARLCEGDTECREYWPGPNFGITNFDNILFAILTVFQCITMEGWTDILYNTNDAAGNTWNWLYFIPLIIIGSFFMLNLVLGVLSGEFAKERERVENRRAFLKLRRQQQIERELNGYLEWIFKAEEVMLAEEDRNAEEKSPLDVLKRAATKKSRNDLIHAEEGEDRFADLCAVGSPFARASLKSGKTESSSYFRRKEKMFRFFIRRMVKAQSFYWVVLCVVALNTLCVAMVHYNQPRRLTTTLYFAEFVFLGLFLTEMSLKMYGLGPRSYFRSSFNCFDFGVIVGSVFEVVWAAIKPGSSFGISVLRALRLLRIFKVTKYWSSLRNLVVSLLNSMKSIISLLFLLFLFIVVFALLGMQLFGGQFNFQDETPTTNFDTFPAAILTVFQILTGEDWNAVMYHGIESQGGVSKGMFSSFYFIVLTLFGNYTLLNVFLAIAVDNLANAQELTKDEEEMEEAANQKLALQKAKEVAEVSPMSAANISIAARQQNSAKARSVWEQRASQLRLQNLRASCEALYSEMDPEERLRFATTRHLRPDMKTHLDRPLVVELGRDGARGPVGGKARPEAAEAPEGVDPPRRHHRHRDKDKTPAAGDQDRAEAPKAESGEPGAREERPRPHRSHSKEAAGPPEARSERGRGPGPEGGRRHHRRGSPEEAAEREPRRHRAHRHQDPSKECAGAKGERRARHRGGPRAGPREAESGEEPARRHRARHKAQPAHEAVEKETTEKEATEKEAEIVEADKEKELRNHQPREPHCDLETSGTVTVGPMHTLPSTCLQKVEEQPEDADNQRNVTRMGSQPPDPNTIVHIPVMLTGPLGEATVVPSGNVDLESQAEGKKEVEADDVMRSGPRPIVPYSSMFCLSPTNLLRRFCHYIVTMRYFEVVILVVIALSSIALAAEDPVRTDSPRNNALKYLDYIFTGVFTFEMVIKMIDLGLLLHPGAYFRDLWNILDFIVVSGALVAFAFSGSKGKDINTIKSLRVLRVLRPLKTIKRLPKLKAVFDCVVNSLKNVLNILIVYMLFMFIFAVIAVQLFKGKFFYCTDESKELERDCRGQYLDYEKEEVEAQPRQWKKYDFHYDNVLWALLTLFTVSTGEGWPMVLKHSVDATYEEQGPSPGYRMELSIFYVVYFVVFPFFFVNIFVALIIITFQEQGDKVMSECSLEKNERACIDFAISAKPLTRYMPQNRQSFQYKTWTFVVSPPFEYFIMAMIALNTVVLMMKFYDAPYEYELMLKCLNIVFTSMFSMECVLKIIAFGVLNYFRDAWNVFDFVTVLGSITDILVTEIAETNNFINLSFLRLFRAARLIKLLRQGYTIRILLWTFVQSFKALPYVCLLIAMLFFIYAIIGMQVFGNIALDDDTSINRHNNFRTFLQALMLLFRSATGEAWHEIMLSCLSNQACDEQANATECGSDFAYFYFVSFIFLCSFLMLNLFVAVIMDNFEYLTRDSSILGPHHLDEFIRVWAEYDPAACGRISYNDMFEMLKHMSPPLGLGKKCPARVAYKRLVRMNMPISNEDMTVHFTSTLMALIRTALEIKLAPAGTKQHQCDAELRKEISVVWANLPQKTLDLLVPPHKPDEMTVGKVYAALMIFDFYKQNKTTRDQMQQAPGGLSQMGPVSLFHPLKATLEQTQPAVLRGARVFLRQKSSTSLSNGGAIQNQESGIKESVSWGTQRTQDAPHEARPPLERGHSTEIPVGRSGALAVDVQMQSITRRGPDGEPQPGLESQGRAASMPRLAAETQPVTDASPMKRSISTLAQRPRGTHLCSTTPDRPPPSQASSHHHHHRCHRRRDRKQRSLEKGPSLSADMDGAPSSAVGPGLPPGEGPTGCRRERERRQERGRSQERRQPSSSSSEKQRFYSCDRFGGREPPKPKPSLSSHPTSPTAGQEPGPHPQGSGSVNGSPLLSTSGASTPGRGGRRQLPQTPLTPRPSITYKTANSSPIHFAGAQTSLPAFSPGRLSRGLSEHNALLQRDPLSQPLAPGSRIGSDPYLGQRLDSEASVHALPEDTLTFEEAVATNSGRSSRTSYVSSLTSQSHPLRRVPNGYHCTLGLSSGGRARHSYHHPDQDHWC
T1 sequence (Q02410 whole entry, the tested form may be a part): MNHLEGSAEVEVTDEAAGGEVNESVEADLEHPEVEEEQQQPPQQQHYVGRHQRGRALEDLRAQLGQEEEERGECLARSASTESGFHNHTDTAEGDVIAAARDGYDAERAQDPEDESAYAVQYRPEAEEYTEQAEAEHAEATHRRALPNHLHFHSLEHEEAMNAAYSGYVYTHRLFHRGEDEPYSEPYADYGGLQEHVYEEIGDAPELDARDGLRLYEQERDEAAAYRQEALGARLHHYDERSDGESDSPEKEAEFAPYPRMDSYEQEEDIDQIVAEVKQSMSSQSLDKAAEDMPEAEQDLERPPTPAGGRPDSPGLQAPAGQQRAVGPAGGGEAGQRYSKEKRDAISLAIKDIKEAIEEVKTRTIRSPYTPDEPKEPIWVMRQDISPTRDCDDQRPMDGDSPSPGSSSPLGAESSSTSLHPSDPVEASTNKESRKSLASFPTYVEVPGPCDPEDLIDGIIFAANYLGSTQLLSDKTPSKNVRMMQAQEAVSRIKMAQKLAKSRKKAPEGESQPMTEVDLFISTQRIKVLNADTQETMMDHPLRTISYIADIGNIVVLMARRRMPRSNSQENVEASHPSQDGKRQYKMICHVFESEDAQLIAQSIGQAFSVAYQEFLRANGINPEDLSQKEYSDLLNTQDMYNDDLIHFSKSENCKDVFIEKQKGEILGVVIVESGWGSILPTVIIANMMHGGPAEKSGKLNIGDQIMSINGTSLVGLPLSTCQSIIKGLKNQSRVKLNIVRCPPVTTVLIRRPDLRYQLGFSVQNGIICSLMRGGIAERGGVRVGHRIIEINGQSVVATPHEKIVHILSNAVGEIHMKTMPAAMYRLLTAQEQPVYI
Chain of Large T antigen (P03070 whole entry): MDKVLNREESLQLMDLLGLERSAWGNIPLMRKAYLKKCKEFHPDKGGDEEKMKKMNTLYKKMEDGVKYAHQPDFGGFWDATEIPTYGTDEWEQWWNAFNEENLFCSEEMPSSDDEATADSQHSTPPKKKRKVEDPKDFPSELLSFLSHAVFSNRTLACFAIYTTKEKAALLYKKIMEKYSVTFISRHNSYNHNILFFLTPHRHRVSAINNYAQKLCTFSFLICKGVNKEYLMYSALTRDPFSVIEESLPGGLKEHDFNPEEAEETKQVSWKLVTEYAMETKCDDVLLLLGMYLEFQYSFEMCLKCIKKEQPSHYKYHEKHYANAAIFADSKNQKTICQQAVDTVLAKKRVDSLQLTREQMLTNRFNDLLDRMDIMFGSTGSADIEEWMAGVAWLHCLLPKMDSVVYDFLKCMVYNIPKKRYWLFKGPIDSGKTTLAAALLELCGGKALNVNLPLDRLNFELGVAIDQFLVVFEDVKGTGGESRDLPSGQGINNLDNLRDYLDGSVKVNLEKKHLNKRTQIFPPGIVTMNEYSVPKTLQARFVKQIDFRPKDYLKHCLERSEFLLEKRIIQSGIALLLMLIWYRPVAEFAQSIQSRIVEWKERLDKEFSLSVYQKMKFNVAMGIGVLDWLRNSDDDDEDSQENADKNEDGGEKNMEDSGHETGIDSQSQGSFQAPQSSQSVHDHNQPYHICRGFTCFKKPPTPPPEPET

CC(=O)N(c1ccc2oc(=O)sc2c1)S(=O)(=O)c1cccs1
IC50 (Large T antigen): 40.1 µM (active)

O=C1C([N+](=O)[O-])=C(O)c2cccc3cccc1c23
IC50 [1]: > 56.8 µM (not active)
EC50 [2]: 12.6 µM (active)
IC50 [3]: 31.2 µM (active)
EC50 [4]: 9.23 µM (active)

c1ccc(-c2csc(NNC3=NCCCCC3)n2)cc1
IC50 (Large T antigen): 61.1 µM (active)

O=C1C(NS(=O)(=O)c2ccccc2)=C(N2CCN(c3ccc(F)cc3)CC2)C(=O)c2ccccc21
IC50 (Nonstructural protein 1): 18.1 µM (active)

COCCn1c(SCC(=O)Nc2ccc(C(N)=O)cc2)nc2c3ccccc3nc-2c1O
IC50 [1]: 6.77 µM (active)
IC50 [3]: > 50 µM (inactive)

CCOC(=O)c1sc(N/N=C/c2ccccc2)nc1C
IC50 [5]: 40.4 µM (active)

O=C(Cn1ncc2c3ccccc3nc-2c1O)NCC1CCN(Cc2ccccc2F)CC1
EC50 [6]: > 53 µM (inactive)
IC50 [7]: > 47.1 µM (inactive)

COc1ccc(-n2nc3c(N4CCC(C(=O)NCc5ccccc5C)CC4)nnc(C)c3c2C)cc1
IC50 [8]: 1.44 µM (active)
IC50 [9]: 2.01 µM (active)

O=C(COC(=O)Cn1cnc2ccccc2c1=O)Nc1cc(Cl)ccc1[N+](=O)[O-]
IC50 (Prothrombin): 3.35 µM (active)

O=C1C(Cl)=CC(=Nc2ccc(O)cc2)C=C1Cl
CC50 (Vero): 37.7 µM (active)
IC50 [10]: > 66 µM (inactive)
IC50 (Genome polyprotein): 7.02 µM (active)
IC50 [11]: > 66 µM (inactive)

COc1ccc(NC2CCCN(C(=O)c3ccc(OC)cc3OC)C2)cc1 (stereo not given)
IC50 (Large T antigen): 82.4 µM (active)

Cc1ccc(C)c(SCC(=O)OCC(=O)Nc2ccc(S(=O)(=O)N3CCOCC3)cc2)c1
IC50 (Prothrombin): 5.72 µM (active)

O=C(COc1ccc(Br)cc1)N1CCN(c2ncccn2)CC1
IC50 (Beta-galactosidase): > 80 µM (inactive)
IC50 [8]: 8.99 µM (active)
IC50 [9]: 10.1 µM (not active)

O=S1(=O)CS(=O)(=O)OCCO1
GI50 (P388/ADR): 7.36 µM (inactive)
GI50 (SN12K1): 28.6 µM (inactive)
GI50 (P388): 10.8 µM (inactive)

Cc1ccc(-c2ccc(=O)n(Cc3cc(C)ccc3C)n2)cc1
EC50 [6]: > 53 µM (inactive)
IC50 [7]: > 47.1 µM (inactive)

CC(=O)N1CCN(c2ccc(NCc3ccc(-c4ccc(Br)cc4)o3)cc2)CC1
IC50 (Nonstructural protein 1): 41.1 µM (active)

Reference: ChEMBL document CHEMBL1201862, “PubChem BioAssay data set” (2004)
